Laboratory results taken from ChEMBL document CHEMBL1255414, “Combination of V106I and V179D polymorphic mutations in human immunodeficiency virus type 1 reverse transcriptase confers resistance to efavirenz and nevirapine but not etravirine” (Antimicrob Agents Chemother, 2010).

Tests used:
[1] = test system: Human immunodeficiency virus 1; assay: Antiviral activity against recombinant HIV1 harboring reverse transcriptase V106I mutant clone infected in MAGIC-5 cells using 5-bromo4-chloro-3-indolyl-beta-D-galactopyranoside staining based light microscopy; assay type: functional, organism-based; conditions: Human immunodeficiency virus 1, MAGIC-5
[2] = test system: Human immunodeficiency virus 1; assay: Antiviral activity against recombinant HIV1 harboring reverse transcriptase V179D mutant clone infected in MAGIC-5 cells using 5-bromo4-chloro-3-indolyl-beta-D-galactopyranoside staining based light microscopy; assay type: functional, organism-based; conditions: Human immunodeficiency virus 1, MAGIC-5
[3] = test system: Human immunodeficiency virus 1; assay: Antiviral activity against recombinant HIV1 harboring reverse transcriptase V106A mutant clone infected in MAGIC-5 cells using 5-bromo4-chloro-3-indolyl-beta-D-galactopyranoside staining based light microscopy; assay type: functional, organism-based; conditions: Human immunodeficiency virus 1, MAGIC-5
[4] = test system: Human immunodeficiency virus 1; assay: Antiviral activity against recombinant HIV1 harboring reverse transcriptase V106I/V179D mutant clone infected in MAGIC-5 cells using 5-bromo4-chloro-3-indolyl-beta-D-galactopyranoside staining based light microscopy; assay type: functional, organism-based; conditions: Human immunodeficiency virus 1, MAGIC-5
[5] = test system: Human immunodeficiency virus 1; assay: Antiviral activity against recombinant HIV1 harboring reverse transcriptase V106A/V179D mutant clone infected in MAGIC-5 cells using 5-bromo4-chloro-3-indolyl-beta-D-galactopyranoside staining based light microscopy; assay type: functional, organism-based; conditions: Human immunodeficiency virus 1, MAGIC-5
[6] = test system: Human immunodeficiency virus 1; assay: Resistance index, ratio of EC50 for recombinant HIV1 harboring reverse transcriptase V106A mutant clone to EC50 for wild type HIV1; assay type: functional
[7] = test system: Human immunodeficiency virus 1; assay: Resistance index, ratio of EC50 for recombinant HIV1 harboring reverse transcriptase V179D mutant clone to EC50 for wild type HIV1; assay type: functional
[8] = test system: Human immunodeficiency virus 1; assay: Resistance index, ratio of EC50 for recombinant HIV1 harboring reverse transcriptase V106A/V179D mutant clone to EC50 for wild type HIV1; assay type: functional
[9] = test system: Human immunodeficiency virus 1; assay: Antiviral activity against wild type HIV1 infected in MAGIC-5 cells using 5-bromo4-chloro-3-indolyl-beta-D-galactopyranoside staining based light microscopy; assay type: functional, organism-based; conditions: Human immunodeficiency virus 1, MAGIC-5
[10] = test system: Human immunodeficiency virus 1; assay: Resistance index, ratio of EC50 for recombinant HIV1 harboring reverse transcriptase V106I/V179D mutant clone to EC50 for wild type HIV1; assay type: functional
[11] = test system: Human immunodeficiency virus 1; assay: Resistance index, ratio of EC50 for recombinant HIV1 harboring reverse transcriptase V106I mutant clone to EC50 for wild type HIV1; assay type: functional

| SMILES | EC50 [1] [nM] | EC50 [2] [nM] | EC50 [3] [nM] | EC50 [4] [nM] | EC50 [5] [nM] | Ratio EC50 [6] | Ratio EC50 [7] | Ratio EC50 [8] | EC50 [9] [nM] | Ratio EC50 [10] | Ratio EC50 [11] |
| --- | --- | --- | --- | --- | --- | --- | --- | --- | --- | --- | --- |
| O=C1Nc2ccc(Cl)cc2[C@@](C#CC2CC2)(C(F)(F)F)O1 [EFAVIRENZ] | 3 | 4 | 3 | 29 | 13 | – | – | – | – | – | – |
| Cc1ccnc2c1NC(=O)c1cccnc1N2C1CC1 [NEVIRAPINE] | 20 | 130 | 3430 | 370 | 4530 | 69 | 2.6 | 91 | 50 | 7 | 0.4 |
| Cc1cc(C#N)cc(C)c1Oc1nc(Nc2ccc(C#N)cc2)nc(N)c1Br [ETRAVIRINE] | 1.5 | 1.9 | 0.5 | 2.4 | 1.4 | 0.4 | 1.6 | 1.2 | 1.2 | 2 | 1.3 |
